ChEMBL document CHEMBL1134744, “Discovery and parallel synthesis of a new class of cathepsin K inhibitors” (Bioorg Med Chem Lett, 2001)

Assays:
[1] = target: T1, Cathepsin K (Homo sapiens) (UniProt P43235); assay: (§1) Inhibitory activity against cathepsin K; design: concentration or dose not given beside the values; conditions: concentration not given here
T1 sequence (whole entry): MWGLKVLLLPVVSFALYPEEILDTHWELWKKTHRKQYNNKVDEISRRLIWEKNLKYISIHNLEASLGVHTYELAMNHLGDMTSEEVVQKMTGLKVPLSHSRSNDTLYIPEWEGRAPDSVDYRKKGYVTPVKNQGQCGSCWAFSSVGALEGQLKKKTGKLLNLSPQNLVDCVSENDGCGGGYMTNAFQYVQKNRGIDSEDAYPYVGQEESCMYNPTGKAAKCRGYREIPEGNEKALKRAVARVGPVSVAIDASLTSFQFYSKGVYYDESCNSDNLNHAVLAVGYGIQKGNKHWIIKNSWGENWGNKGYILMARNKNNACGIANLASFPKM

Cathepsin K [2] = target: T2, Cathepsin K (Homo sapiens, UniProt P43235); assay: Inhibitory activity against Cathepsin K
T2 sequence (P43235 whole entry): T1 sequence (whole entry)

Cathepsin K [3] = target: T2, Cathepsin K; assay: as §1

## CC[C@H](C)[C@@H](/C=C/c1ccccc1)NC(=O)[C@@H]1CCCCN1CC(=O)c1ccc(NC(C)=O)cc1
[1]
  inhibition: 42%

## CC[C@H](C)[C@@H](/C=C/c1ccccc1)NC(=O)[C@@H]1CCCCN1CC(=O)c1ccc(C#N)cc1
[1]
  inhibition: 16%

## CC[C@H](C)[C@@H](/C=C/c1ccccc1)NC(=O)[C@@H]1C=CCN1CC(=O)c1ccccc1
[1]
  inhibition: 43%

## CC(C)C[C@H](NC(=O)OCc1ccccc1)C(=O)NC1CN(C(=O)[C@H](CC(C)C)NC(=O)OCc2ccccc2)CC1=O (stereo not given in full)
Cathepsin K [2]
  Ki: 2 nM

## CC[C@H](C)[C@@H](/C=C/c1ccccc1)NC(=O)[C@@H]1CCCCN1CC(O)c1cc(OC)c(OC)c(OC)c1 (stereo not given in full)
[1]
  inhibition: 8%

## CC[C@H](C)[C@@H](/C=C/c1ccccc1)NC(=O)[C@@H]1CCCCN1CC(=O)c1ccc2c(c1)OCO2
Cathepsin K [3]
  IC50: 590 nM

## CC[C@H](C)[C@@H](/C=C/c1ccccn1)NC(=O)[C@@H]1CCCCN1CC(=O)c1ccccc1
[1]
  inhibition: 26%

## O=C(CN1CCCC[C@H]1C(=O)Nc1ccc2oc3ccccc3c2c1)c1ccccc1
[1]
  inhibition: < 1%

## CCC(=O)CN1CCCC[C@H]1C(=O)N[C@H](/C=C/c1ccccc1)[C@@H](C)CC
[1]
  inhibition: 22%

## CC[C@H](C)[C@@H](/C=C/c1ccccc1)NC(=O)[C@@H]1Cc2ccccc2CN1CC(=O)c1ccccc1
[1]
  inhibition: 29%

## CC[C@H](C)[C@@H](/C=C/c1ccc(C)cc1)NC(=O)[C@@H]1CCCCN1CC(=O)c1ccccc1
Cathepsin K [3]
  IC50: 740 nM

## CC[C@H](C)[C@@H](/C=C/c1ccccc1)NC(=O)[C@@H]1CCCCN1CC(=O)c1ccccc1
Cathepsin K [3]
  IC50: 230 nM

## CC[C@H](C)[C@H](NC(=O)[C@@H]1CCCCN1CC(=O)c1ccccc1)C(=O)Nc1ccccc1
[1]
  inhibition: 8%

## CC(C)C[C@@H](/C=C/c1ccccc1)NC(=O)[C@@H]1CCCCN1CC(=O)c1ccccc1
Cathepsin K [3]
  IC50: 840 nM

## CC(C)[C@@H](/C=C/c1ccccc1)NC(=O)[C@@H]1CCCCN1CC(=O)c1ccccc1
Cathepsin K [2]
  IC50: 780 nM

## CC[C@H](C)[C@@H](/C=C/c1ccccc1)NC(=O)[C@@H]1CCCCN1CC(=O)c1ccc(OC)cc1
Cathepsin K [3]
  IC50: 410 nM

## CC[C@H](C)[C@@H](/C=C/c1ccccc1)NC(=O)[C@@H]1CCCCN1CC(=O)c1cccc([N+](=O)[O-])c1
[1]
  inhibition: 11%

## CC[C@H](C)[C@@H](/C=C/c1ccccc1)NC(=O)[C@@H]1CCCCN1CC(C)=O
[1]
  inhibition: 3%

## CC[C@H](C)[C@@H](/C=C/c1ccccc1)NC(=O)[C@@H]1CCCN1CC(=O)c1ccccc1
[1]
  inhibition: 15%

## COc1cc(C(=O)CN2CCCC[C@H]2C(=O)N[C@H](/C=C/c2ccccc2)Cc2ccccc2)cc(OC)c1OC
[1]
  inhibition: 20%

## COc1cc(C(=O)CN2CCCC[C@H]2C(=O)N[C@H](/C=C/c2ccccc2)CC(C)C)cc(OC)c1OC
Cathepsin K [3]
  IC50: 1500 nM

## CC[C@H](C)[C@@H](/C=C/c1ccccc1)NC(=O)[C@@H]1CCCCN1CC(=O)c1cc(OC)c(OC)c(OC)c1
Cathepsin K [3]
  IC50: 1200 nM
  Ki: 790 nM

## CC[C@H](C)[C@@H](/C=C/c1ccccc1)NC(=O)[C@@H]1CCCCN1CC(=O)c1c(OC)cccc1OC
Cathepsin K [3]
  IC50: 700 nM

## CC[C@H](C)[C@@H](/C=C/c1ccccc1)NC(=O)[C@@H]1CCCCN1CC(=O)c1ccc(Cl)cc1
Cathepsin K [3]
  IC50: 280 nM

## CC[C@H](C)[C@@H](/C=C/c1ccccc1C)NC(=O)[C@@H]1CCCCN1CC(=O)c1ccccc1
Cathepsin K [3]
  IC50: 590 nM

## CC[C@H](C)[C@@H](/C=C/c1ccncc1)NC(=O)[C@@H]1CCCCN1CC(=O)c1ccccc1
[1]
  inhibition: 8%

## O=C(CN1CCCC[C@H]1C(=O)Nc1cccc(-c2ccccc2)c1)c1ccccc1
[1]
  inhibition: 2%

## CC[C@H](C)[C@@H](/C=C/c1ccccc1)NC(=O)[C@@H]1CCCCN1CC(=O)c1ccc([N+](=O)[O-])cc1
[1]
  inhibition: 28%

## CC[C@H](C)[C@@H](/C=C/c1ccc(Cl)cc1)NC(=O)[C@@H]1CCCCN1CC(=O)c1ccccc1
Cathepsin K [3]
  IC50: 1400 nM
